Laboratory results taken from PubChem BioAssay AID248 (DTP/NCI, 2004).
Where “and” joins values, the source holds several entries; their conditions need not be identical. Identical values can stand only once. Toxic doses and inconclusive results are not listed. Cut-off read from the data, not from the text of the source: active = T/C of 150% or more; inactive = T/C below 125%.

Tested on: L1210 leukemia ip in BDF1 mice, survival T/C
Assay: NCI In Vivo Anticancer Drug Screen. Data for tumor model L1210 Leukemia (intraperitoneal) in B6D2F1 (BDF1) mice
Conditions: endpoint: mean survival time, higher = longer survival
Method in brief: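 Transplanted-tumor mice were given test agent; controls received vehicle only. Survival readings from the two groups were divided (treated over control).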

[1] = dose: 100.0 mg/kg/injection, schedule: Q01DX001 (ip), vehicle: carboxymethylcellulose (CMC)
[2] = dose: 200.0 mg/kg/injection, schedule: Q01DX001 (ip), vehicle: carboxymethylcellulose (CMC)
[3] = dose: 100.0 mg/kg/injection, schedule: Q04DX003 (ip), vehicle: Klucel (hydroxypropylcellulose) (HPC)
[4] = dose: 200.0 mg/kg/injection, schedule: Q04DX003 (ip), vehicle: Klucel (hydroxypropylcellulose) (HPC)
[5] = dose: 400.0 mg/kg/injection, schedule: Q04DX003 (ip), vehicle: Klucel (hydroxypropylcellulose) (HPC)
[6] = dose: 100.0 mg/kg/injection, schedule: Q01DX009 (ip), vehicle: Klucel (hydroxypropylcellulose) (HPC)
[7] = dose: 200.0 mg/kg/injection, schedule: Q01DX009 (ip), vehicle: Klucel (hydroxypropylcellulose) (HPC)
[8] = dose: 400.0 mg/kg/injection, schedule: Q01DX009 (ip), vehicle: Klucel (hydroxypropylcellulose) (HPC)
[9] = dose: 400.0 mg/kg/injection, schedule: Q01DX001 (ip), vehicle: carboxymethylcellulose (CMC)
[10] = dose: 100.0 mg/kg/injection, schedule: Q04DX003 (ip), vehicle: saline
[11] = dose: 200.0 mg/kg/injection, schedule: Q04DX003 (ip), vehicle: saline
[12] = dose: 400.0 mg/kg/injection, schedule: Q04DX003 (ip), vehicle: saline

Measured: T/C

COc1ccc(/C=C(\CCCOC(C)=O)[N+](=O)[O-])cc1OC
inactive: [1] 104 % of control | [2] 101 % of control

CCOC(=O)/C(=C\c1ccccc1)c1nc2ccccc2[nH]1
inactive: dose: 100.0 mg/kg/injection, schedule: Q04DX002 (ip), vehicle: Klucel (hydroxypropylcellulose) (HPC) 97 % of control | dose: 200.0 mg/kg/injection, schedule: Q04DX002 (ip), vehicle: Klucel (hydroxypropylcellulose) (HPC) 101 % of control | dose: 400.0 mg/kg/injection, schedule: Q04DX002 (ip), vehicle: Klucel (hydroxypropylcellulose) (HPC) 94 % of control

C[Si](C)(C)Cc1ccccc1
inactive: dose: 50.0 mg/kg/injection, schedule: Q01DX001 (ip), vehicle: carboxymethylcellulose (CMC) 93 % of control | [2] 95 % of control

C=C(Cl)CSc1ncnc2nc[nH]c12
inactive: dose: 75.0 mg/kg/injection, schedule: Q01DX001 (ip), vehicle: saline 98 % of control

O=C(CC1(O)C(=O)Nc2ccccc21)CC1(O)C(=O)Nc2ccccc21 (stereo unspecified)
inactive: dose: 100.0 mg/kg/injection, schedule: Q01DX007 (ip), vehicle: Klucel (hydroxypropylcellulose) (HPC) 110 % of control | [3] 100 % of control | dose: 200.0 mg/kg/injection, schedule: Q01DX007 (ip), vehicle: Klucel (hydroxypropylcellulose) (HPC) 118 % of control | [4] 97 % of control | dose: 400.0 mg/kg/injection, schedule: Q01DX007 (ip), vehicle: Klucel (hydroxypropylcellulose) (HPC) 103 % of control | [5] 92 % of control

COCc1c(C)c(C)cc(C)c1C
inactive: [6] 96 % of control | [7] 96 % of control | [8] 91 % of control

N#C[CH2][Sn]([c]1ccccc1)([c]1ccccc1)[c]1ccccc1
inactive: dose: 12.5 mg/kg/injection, schedule: Q04DX002 (ip), vehicle: saline with Tween-80 100 % of control | dose: 25.0 mg/kg/injection, schedule: Q04DX002 (ip), vehicle: saline with Tween-80 96 % of control | dose: 50.0 mg/kg/injection, schedule: Q04DX002 (ip), vehicle: saline with Tween-80 93 % of control

COc1ccc(OC)c(NC(=O)c2ccc(F)cc2)c1
inactive: [6] 98 % of control | [7] 107 % of control | [8] 96 % of control

F[Si](c1cccc2ccccc12)(c1cccc2ccccc12)c1cccc2ccccc12
inactive: dose: 100.0 mg/kg/injection, schedule: Q01DX009 (ip), vehicle: saline with Tween-80 93 % of control | dose: 100.0 mg/kg/injection, schedule: Q04DX003 (ip), vehicle: saline with Tween-80 92 % of control | dose: 200.0 mg/kg/injection, schedule: Q01DX009 (ip), vehicle: saline with Tween-80 87 % of control | dose: 200.0 mg/kg/injection, schedule: Q04DX003 (ip), vehicle: saline with Tween-80 90 % of control | dose: 400.0 mg/kg/injection, schedule: Q01DX009 (ip), vehicle: saline with Tween-80 103 % of control | dose: 400.0 mg/kg/injection, schedule: Q04DX003 (ip), vehicle: saline with Tween-80 97 % of control

CCN(c1ccccc1)c1ccc([N+](=O)[O-])c2no[n+]([O-])c12
inactive: dose: 20.0 mg/kg/injection, schedule: Q04DX003 (ip), vehicle: saline with Tween-80 100 % of control | dose: 40.0 mg/kg/injection, schedule: Q04DX003 (ip), vehicle: saline with Tween-80 96 % of control

c1ccc(-c2nc(-c3ccccn3)nc(-c3ccccn3)n2)nc1
inactive: dose: 5.0 mg/kg/injection, schedule: Q01DX001 (ip), vehicle: saline 107 % of control | dose: 10.0 mg/kg/injection, schedule: Q01DX001 (ip), vehicle: saline 96 % of control | dose: 20.0 mg/kg/injection, schedule: Q01DX001 (ip), vehicle: saline 100 % of control | dose: 40.0 mg/kg/injection, schedule: Q01DX001 (ip), vehicle: saline 93 % of control | dose: 80.0 mg/kg/injection, schedule: Q01DX001 (ip), vehicle: saline 91 % of control

CCCCCCCCCCCCS
inactive: [1] 103 % of control | [2] 105 % of control | [9] 103 % of control

O=C(Nc1ccc(F)cc1)Nc1ccc(CCO)cc1
inactive: [1] 99 % of control | dose: 100.0 mg/kg/injection, schedule: Q01DX009 (ip), vehicle: carboxymethylcellulose (CMC) 101 % of control and 104 % of control | dose: 100.0 mg/kg/injection, schedule: Q04DX002 (ip), vehicle: carboxymethylcellulose (CMC) 92 % of control and 87 % of control and 91 % of control | dose: 100.0 mg/kg/injection, schedule: Q04DX003 (ip), vehicle: carboxymethylcellulose (CMC) 95 % of control | [2] 92 % of control | dose: 200.0 mg/kg/injection, schedule: Q01DX009 (ip), vehicle: carboxymethylcellulose (CMC) 92 % of control and 98 % of control | dose: 200.0 mg/kg/injection, schedule: Q04DX002 (ip), vehicle: carboxymethylcellulose (CMC) 87 % of control and 88 % of control and 90 % of control | dose: 200.0 mg/kg/injection, schedule: Q04DX003 (ip), vehicle: carboxymethylcellulose (CMC) 101 % of control | dose: 400.0 mg/kg/injection, schedule: Q01DX009 (ip), vehicle: carboxymethylcellulose (CMC) 92 % of control | dose: 400.0 mg/kg/injection, schedule: Q04DX002 (ip), vehicle: carboxymethylcellulose (CMC) 93 % of control and 87 % of control and 88 % of control | dose: 400.0 mg/kg/injection, schedule: Q04DX003 (ip), vehicle: carboxymethylcellulose (CMC) 91 % of control

O=C(NCCCl)Nc1ccc2c(c1)Cc1ccccc1-2
inactive: [3] 108 % of control | [4] 93 % of control | [5] 101 % of control

CC(=O)NCCCC(=O)O
inactive: [10] 101 % of control | [11] 103 % of control | [12] 100 % of control

CCC1(CC)C(=O)NC(=NCCCC(N)C(=O)O)NC1=O (stereo unspecified)
inactive: dose: 75.0 mg/kg/injection, schedule: Q01DX001 (ip), vehicle: carboxymethylcellulose (CMC) 106 % of control | dose: 150.0 mg/kg/injection, schedule: Q01DX001 (ip), vehicle: carboxymethylcellulose (CMC) 109 % of control

Cc1cccc(NC(=O)c2ccc(Cl)cc2)c1C
inactive: [6] 99 % of control | [10] 111 % of control | [7] 95 % of control | [11] 104 % of control | [8] 95 % of control | [12] 109 % of control

C=CCc1ccc(OC)c(OC)c1
inactive: dose: 100.0 mg/kg/injection, schedule: Q04DX002 (ip), vehicle: saline 97 % of control | dose: 200.0 mg/kg/injection, schedule: Q04DX002 (ip), vehicle: saline 95 % of control | dose: 400.0 mg/kg/injection, schedule: Q04DX002 (ip), vehicle: saline 104 % of control

CCC(CO)Nc1nc2cc(Cl)ccc2c2ccc(Cl)cc12 (stereo unspecified)
inactive: [3] 102 % of control | [4] 100 % of control | [5] 103 % of control

CCN1CCCC(Nc2nc(Nc3cc(Cl)cc(Cl)c3)nc3cc(Cl)ccc23)C1 (stereo unspecified)
inactive: dose: 100.0 mg/kg/injection, schedule: Q04DX003 (ip), vehicle: saline sonified 95 % of control | dose: 200.0 mg/kg/injection, schedule: Q04DX003 (ip), vehicle: saline sonified 97 % of control | dose: 400.0 mg/kg/injection, schedule: Q04DX003 (ip), vehicle: saline sonified 106 % of control

c1cc(OCC2CO2)ccc1OCC1CO1 (stereo unspecified)
inactive: dose: 100.0 mg/kg/injection, schedule: Q01DX001 (ip), vehicle: other 115 % of control | dose: 200.0 mg/kg/injection, schedule: Q01DX001 (ip), vehicle: other 124 % of control | dose: 400.0 mg/kg/injection, schedule: Q01DX001 (ip), vehicle: other 121 % of control

CC(CO)(CO)N=Cc1cc([N+](=O)[O-])ccc1O
inactive: [1] 98 % of control | [2] 98 % of control | [9] 98 % of control

Cc1ccc(C2=NN(c3ccccc3)C(c3ccccc3)C2NC2CCCCC2)cc1 (stereo unspecified)
inactive: dose: 100.0 mg/kg/injection, schedule: Q01DX009 (ip), vehicle: acetone 86 % of control | dose: 400.0 mg/kg/injection, schedule: Q01DX009 (ip), vehicle: acetone 100 % of control
